In brackets after ≈: the same amount, converted by molar mass. Where two headings read alike, the source gives them in different places. Blank lines part the entries; values can stand above or below the compound they belong to.
Experiments:
hepatoma cell HepG2 = assay: MTT assay, mitomycin C preparations; type: cell-based; conditions: HepG2, 48 h, mitomycin C solution or mitomycin C-loaded micelle of the named carrier
Protocol: Cell survival rate was determined by MTT assay. […] After incubation for 48 h, 60 μL of MTT solution was added to each well followed by incubation for 4 h. After that, the supernatant was discarded, and the cells were washed twice with PBS solution, prior to adding 400 μL DMSO to each well to terminate the reaction. After the culture plates were given a horizontal vibration for 10 min, the absorbance at the wavelength of 570 nm was measured in ELSA meter, and the cell survival rate was calculated according to the following formula: Cell survival rate(%)=A570(sample)/A570(control)×100% Wherein, A570 (sample) is the absorbance of cells adding with free drug or drug-loaded micelle, A570 (control) is the absorbance of control cells.

[1] = test system: uterine cervix cancer cell Hela; assay: MTT assay, adriamycin preparation; type: cell-based; conditions: Homo sapiens, 48 h
Protocol: Subsequently, the solution was transferred into a volumetric flask to set the total volume to 50 mL with distilled water, and then 1 mg/mL micelle solution was obtained. […] After stirred at room temperature for 3 h, the solution was dialyzed for 24 h with distilled water in dialysis bag with the molecular weight of 3,500. Then the dialysis concentrate solution was centrifuged at 5000 rpm for 5 min to remove the dialyzed hydrophobic anticancer drugs.
Subsequently, the evaluation of antitumor efficacy was conducted. Specifically, the uterine cervix cancer cell Hela used as the model was cultured in 96-well culture plate. 100 μL cell culture solution containing 5×10^3 Hela cells was added to each well and cultured for 24 h in 37° C., 5% CO2 incubator. […] A repeated well of each above group was set. The cells were cultured in normal DMEM medium for 48. After 20 μL of 5 mg/mL methylthiazoletetrazolium (MTT) solution was added to each well, the cells was re-cultured in 37° C., 5% CO2 incubator for 4 h, and then the supernatant was discarded. By adding 150 μL dimethyl sulfoxide to each well, a multi-functional microplate reader was used to measure the absorbance, and then the cell inhibition ratio was calculated according to the following formula: Cell inhibition ratio(%)=(absorbance of control group−absorbance of experimental group)/absorbance of control group×100%

[2] = test system: breast carcinoma cell (MCF-7); assay: MTT assay, adriamycin preparation, sensitive cells; type: cell-based; conditions: Homo sapiens, MCF7, 48 h
Protocol: (§1) Specifically, the breast carcinoma cell (MCF-7) and its drug-resistant cell (MCF-7-adr) used as the model cells were cultured in 96-well culture plate. 100 μL culture solution containing 5×10^3 MCF-7 or MCF-7-adr cells was added to each well and cultured for 24 h in 37° C., 5% CO2 incubator. […] A repeated well of each above group was set. The cells were cultured in normal DMEM medium for 48. After 20 μL of 5 mg/mL methylthiazoletetrazolium (MTT) solution was added to each well, the cells was re-cultured in 37° C., 5% CO2 incubator for 4 h, and then the supernatant was discarded. By adding 150 μL dimethyl sulfoxide to each well, a multi-functional microplate reader was used to measure the absorbance, and then the cell inhibition ratio was calculated according to the following formula: Cell inhibition ratio %=(absorbance of control group−absorbance of experimental group)/absorbance of control group×100%

[3] = test system: drug-resistant cell (MCF-7-adr); assay: MTT assay, adriamycin preparation, drug-resistant cells; type: cell-based; conditions: Homo sapiens, NCI/ADR-RES, 48 h
Protocol: as §1

QGY tumor = assay: In vivo gene therapy, tumor inhibition; conditions: Nude mouse with QGY tumor, 2 mg/kg once, successive administration for 7 days
Protocol: PEDF was taken as the theoretical gene, and the drug-loaded graft micelle was prepared.

[4] = test system: human lung cancer cell A549; assay: MTT assay, paclitaxel and hydroxycamptothecin preparations; type: cell-based; conditions: A549, 48 h
Protocol: Specifically, the human lung cancer cell A549 used as the model was cultured in 96-well culture plate. 100 μL cell culture solution containing 5×10^3 A549 cells was added to each well and cultured for 24 h in 37° C., 5% CO2 incubator. […] A repeated well of each above group was set. The cells were cultured in normal DMEM medium for 48. After 20 μL of 5 mg/mL methylthiazoletetrazolium (MTT) solution was added to each well, the cells was re-cultured in 37° C., 5% CO2 incubator for 4 h, and then the supernatant was discarded. By adding 150 μL dimethyl sulfoxide to each well, a multi-functional microplate reader was used to measure the absorbance, and then the cell inhibition ratio was calculated according to the following formula: Cell inhibition ratio %=(absorbance of control group−absorbance of experimental group)/absorbance of control group×100%

[5] = test system: ovarian cancer cell SKOV-3; assay: MTT assay, paclitaxel preparation, sensitive cells; type: cell-based; conditions: Homo sapiens, SK-OV-3, 48 h
Protocol: as §1, with “ovarian cancer” for “breast carcinoma”, “SKOV-3” for “(MCF-7)”, “SKOV-3/ST30” for “(MCF-7-adr)”, “SKOV-3” for “MCF-7”, “SKOV-3/ST30” for “MCF-7-adr”

[6] = test system: drug-resistant cell SKOV-3/ST30; assay: MTT assay, paclitaxel preparation, drug-resistant cells; type: cell-based; conditions: Homo sapiens, SK-OV-3, 48 h
Protocol: as §1, with “ovarian cancer” for “breast carcinoma”, “SKOV-3” for “(MCF-7)”, “SKOV-3/ST30” for “(MCF-7-adr)”, “SKOV-3” for “MCF-7”, “SKOV-3/ST30” for “MCF-7-adr”

Compound: CO[C@@]12[C@H](COC(N)=O)C3=C(C(=O)C(C)=C(N)C3=O)N1C[C@@H]1N[C@@H]12 [Control example, mitomycin C]
IC50 (hepatoma cell HepG2): 1.97 µg/mL (≈ 5.89 µM)

IC50 [1]: 1.7 µg/mL (≈ 3.13 µM)
IC50 [2]: 0.48 µg/mL (≈ 0.883 µM)
IC50 [3]: 24.8 µg/mL (≈ 45.6 µM)
Compound: COc1cccc2c1C(=O)c1c(O)c3c(c(O)c1C2=O)C[C@@](O)(C(=O)CO)C[C@@H]3O[C@H]1C[C@H](N)[C@H](O)[C@H](C)O1 [adriamycin solution, adriamycin]
tumor inhibition ratio (positive control) (QGY tumor): 78.85%

Compound: CC[C@@]1(O)C(=O)OCc2c1cc1n(c2=O)Cc2cc3cc(O)ccc3nc2-1 [hydeoxycamptothecin injection, hydroxycamptothecin]
IC50 [4]: 8.6 µg/mL (≈ 23.6 µM)

IC50 ([4]; MTT, read-out: IC50): 3.2 µg/mL (≈ 3.75 µM)
IC50 [5]: 0.45 ± 0.05 µg/mL (≈ 0.527 µM)
IC50 [6]: 10.2 ± 0.23 µg/mL (≈ 12 µM)
Compound: CC(=O)O[C@H]1C(=O)[C@@]2(C)[C@H]([C@H](OC(=O)c3ccccc3)[C@]3(O)C[C@H](OC(=O)[C@H](O)[C@@H](NC(=O)c4ccccc4)c4ccccc4)C(C)=C1C3(C)C)[C@]1(OC(C)=O)CO[C@@H]1C[C@@H]2O [taxol solution, paclitaxel]
